Results reported in patent US20100009970A1, “COMPOSITIONS AND METHODS FOR TREATMENT OF VIRAL DISEASES” (Combinatorx (Singapore) Pte. Ltd., priority 2008, published 2010).
Read-outs that look alike come from different tables or passages of the source.

Columns and labels:
[1] = in vitro; details: human
[2] = system: Huh7 cells expressing a subgenomic RNA replicon of Con1 (genotype 1b) sequence origin; assay: microbe, parasite or virus in culture; details: Hepatitis C virus
[3] = Huh-7, read-out: IC50 (uM) [SG]
[4] = Huh-7, read-out: Max Effect@CC30 (inhibition)
[5] = GETYPE1B, Huh-7, 72 h, read-out: Max Effect @CC30 (inhibition)
[6] = Huh-7, read-out: Max effect @CC30 (%)

Structure (SMILES)	CC50 ([1]; CC50 (uM) [SG])	IC50 [2, 3]	Emax [2, 4]	IC90 ([2]; Huh-7)	further results
CN[C@H]1CC[C@@H](c2ccc(Cl)c(Cl)c2)c2ccc(C(N)=O)cc21 [Sertraline A ring carboxamide, (5S,8S)-5-(3,4-dichlorophenyl)-8-(methylamino)-5,6,7,8-tetrahydronaphthalene-2-carboxamide]	16.2 µM	1.8 µM	–	–	–
CN(CCO)[C@H]1CC[C@@H](c2ccc(Cl)c(Cl)c2)c2ccc(C[S+](C)[O-])cc21 (stereo partly drawn) [2-(((1S,4S)-4-(3,4-dichlorophenyl)-7-(methylsulfinylmethyl)-1,2,3,4-tetrahydronaphthalen-1-yl)(methyl)amino)ethanol]	> 50 µM	24.2 µM	–	–	–
CN[C@H]1CC[C@@H](c2ccc(Cl)c(Cl)c2)c2ccc(C(=O)Nc3ccccc3)cc21 [Sertraline A-Ring Benzamide, (5S,8S)-5-(3,4-dichlorophenyl)-8-(methylamino)-N-phenyl-5,6,7,8-tetrahydronaphthalene-2-carboxamide]	3.89 µM	2.73 µM	48.6%	–	–
CN[C@H]1CC[C@@H](c2ccc(Cl)c(Cl)c2)c2ccc([N+](=O)[O-])cc21 [Nitro Sertraline, (1S,4S)-4-(3,4-dichlorophenyl)-N-methyl-7-nitro-1,2,3,4-tetrahydronaphthalen-1-amine]	8.03 µM	6.46 µM	27%	–	CC50 ([1]; CC50 (uM)): 8.03 µM; Emax [2, 5]: 27%; IC50 ([2]; Huh-7, 72 h): 6.46 µM
CSc1ccc(Oc2ccc(S(N)(=O)=O)cc2CN2CC[C@@H](O)C2)cc1C [Compound 67, (R)-3-((3-hydroxypyrrolidin-1-yl)methyl)-4-(3-methyl-4-(methylthio)phenoxy)benzenesulfonamide]	> 50 µM	2.26 µM	–	7.4 µM	–
CN(C)[C@H]1CC[C@@H](c2ccc(Cl)c(Cl)c2)c2ccc(C(=O)NC3CC3)cc21 [(5S,8S)—N-cyclopropyl-5-(3,4-dichlorophenyl)-8-(dimethylamino)-5,6,7,8-tetrahydronaphthalene-2-carboxamide]	25.4 µM	7.3 µM	–	–	–
CSc1ccc(Oc2ccc(S(N)(=O)=O)cc2C=C(C)C)cc1C [Compound 86, 4-(3-methyl-4-(methylthio)phenoxy)-3-(2-methylprop-1-enyl)benzenesulfonamide]	> 50 µM	34.8 µM	–	–	–
CNCc1cc(S(N)(=O)=O)ccc1Oc1ccc(SC)c(OC)c1 [Compound 75, 4-(3-methoxy-4-(methylthio)phenoxy)-3-((methylamino)methyl)benzenesulfonamide]	> 50 µM	11.9 µM	–	–	–
CSc1ccc(Oc2ccc(S(N)(=O)=O)cc2CN2CC[C@@H](N(C)C)C2)cc1C [Compound 100, (R)-3-((3-(dimethylamino)pyrrolidin-1-yl)methyl)-4-(3-methyl-4-(methylthio)phenoxy)benzenesulfonamide]	35.6 µM	5.03 µM	–	10.6 µM	–
CNC1CCC(c2ccc(OC)cc2)c2ccccc21 (centres unmarked) [Sertraline B-Ring Para-Methoxy, 4-(4-methoxyphenyl)-N-methyl-1,2,3,4-tetrahydronaphthalen-1-amine]	51.1 µM	26.8 µM	–	–	–
CC(=O)NCc1ccc2c(c1)[C@@H](N(C)C)CC[C@H]2c1ccc(Cl)c(Cl)c1 [N-(((5S,8S)-5-(3,4-dichlorophenyl)-8-(dimethylamino)-5,6,7,8-tetrahydronaphthalen-2-yl)methyl)acetamide]	19.1 µM	4.45 µM	92%	9.72 µM	–
CSc1ccc(Oc2ccc(S(=O)(=O)Nc3ccccc3)cc2CN(C)C)cc1C [Compound 49, 3-((dimethylamino)methyl)-4-(3-methyl-4-(methylthio)phenoxy)-N-phenylbenzenesulfonamide]	10.8 µM	6.53 µM	15.3%	–	–
CSc1ccc(Oc2ccc(S(N)(=O)=O)cc2CN2CCN(C(C)C)CC2)cc1C [Compound 106, 3-((4-isopropylpiperazin-1-yl)methyl)-4-(3-methyl-4-(methylthio)phenoxy)benzenesulfonamide]	24.3 µM	3.57 µM	–	8.21 µM	–
CN[C@@H]1CC[C@H](c2ccc(Cl)c(Cl)c2)c2ccccc21 [1R,4R Sertraline Enantiomer, (1R,4R)-4-(3,4-dichlorophenyl)-N-methyl-1,2,3,4-tetrahydronaphthalen-1-amine]	14.6 ± 0.37 µM	–	58.7 ± 23.6%	–	CC50 at 72 h ([1]; CC50 (uM)): 14.3 µM; Emax [2, 5]: 42%
CN[C@H]1CC[C@@H](c2ccc(Cl)c(Cl)c2)c2ccc(NC(C)=O)cc21 [Sertraline A-Ring Reverse Carboxamide, N-((5S,8S)-5-(3,4-dichlorophenyl)-8-(methylamino)-5,6,7,8-tetrahydronaphthalen-2-yl)acetamide]	12 ± 1.77 µM	0.91 ± 0.08 µM	83 ± 6.55%	7.26 µM	CC50 ([1]; CC50 (uM)): 10.7 µM; IC50 ([2]; Huh-7): 0.85 µM; Emax ([2]; Huh-7, read-out: Max Effect @CC30 (inhibition)): 87.7%; Emax [2, 6]: 83 ± 6.55%; IC50 ([2]; Huh-7, read-out: SA IC50 (uM)): 0.91 ± 0.08 µM
CC(C)C1CC[C@@H](c2ccc(Cl)c(Cl)c2)c2ccc(C(N)=O)cc21 (stereo partly drawn) [Isopropyl Sertraline A-Ring Carboxamide, (S)-5-(3,4-dichlorophenyl)-8-isopropyl-5,6,7,8-tetrahydronaphthalene-2-carboxamide]	> 50 µM	38.9 µM	–	–	–

Structure (SMILES)	CC50 ([1]; CC50 (uM) [SG])	IC50 [2, 3]	Emax [2, 4]	IC90 ([2]; Huh-7)	further results
CSc1ccc(Oc2ccc(Br)cc2CN(C)C)cc1 [Compound 41, 1-(5-bromo-2-(4-(methylthio)phenoxy)phenyl)-N,N-dimethylmethanamine]	> 50 µM	25.8 µM	94.7%	28.8 µM	–
CN[C@H]1CC[C@@H](c2ccc(Cl)c(Cl)c2)c2ccc(I)cc21 [Sertraline Iodide, (1S,4S)-4-(3,4-dichlorophenyl)-7-iodo-N-methyl-1,2,3,4-tetrahydronaphthalen-1-amine]	8.92 µM	6.57 µM	25%	–	CC50 ([1]; CC50 (uM)): 8.92 µM; Emax [2, 5]: 25%; IC50 ([2]; Huh-7, 72 h): 6.57 µM
CSc1ccc(Oc2ccc(S(N)(=O)=O)cc2CN(C)CCN(C)C)cc1C [Compound 97, 3-(((2-(dimethylamino)ethyl)(methyl)amino)methyl)-4-(3-methyl-4-(methylthio)phenoxy)benzenesulfonamide]	43.3 µM	12.4 µM	–	14 µM	–
CSc1ccc(Oc2ccc(S(N)(=O)=O)cc2CN(C)C[C@H](C)O)cc1C [Compound 71, (S)-3-(((2-hydroxypropyl)(methyl)amino)methyl)-4-(3-methyl-4-(methylthio)phenoxy)benzenesulfonamide]	> 50 µM	4.96 µM	–	13.4 µM	–
CSc1ccc(Oc2ccc(S(=O)(=O)NCc3ccccc3)cc2CN(C)C)cc1C [Compound 14, N-benzyl-3-((dimethylamino)methyl)-4-(3-methyl-4-(methylthio)phenoxy)benzenesulfonamide]	16.9 µM	11.4 µM	59%	–	–
CNCc1cc(Br)ccc1Oc1ccc(SC)c(C)c1 [Compound 31, (5-bromo-2-(3-methyl-4-(methylthio)phenoxy)phenyl)-N-methylmethanamine]	13.5 µM	7.51 µM	18%	–	–
CSc1ccc(Oc2ccc(S(=O)(=O)Nc3ccc(Br)cc3)cc2CN(C)C)cc1C [Compound 57, N-(4-bromophenyl)-3-((dimethylamino)methyl)-4-(3-methyl-4-(methylthio)phenoxy)benzenesulfonamide]	8.17 µM	11 µM	–	–	–
CN(C)Cc1ccccc1Oc1ccc(Br)cc1 [Compound 55, (2-(4-bromophenoxy)phenyl)-N,N-dimethylmethanamine]	> 50 µM	29.9 µM	77.2%	–	–
CSc1ccc(Oc2ccc(S(N)(=O)=O)cc2CN2CCC[C@@H]2CO)cc1C [Compound 102, (R)-3-((2-(hydroxymethyl)pyrrolidin-1-yl)methyl)-4-(3-methyl-4-(methylthio)phenoxy)benzenesulfonamide]	> 50 µM	6.76 µM	–	17.6 µM	–
CNC1CCC(c2ccc(Cl)c(Cl)c2)c2ccsc21 (centres unmarked) [Sertraline A-ring Thiophene]	18.8 ± 0.93 µM	8.27 ± 0.46 µM	80.8 ± 2.55%	–	Emax [2, 6]: 80.8 ± 2.55%; IC50 ([2]; Huh-7, read-out: SA IC50 (uM)): 8.27 ± 0.46 µM
CSc1ccc(Oc2ccc(S(N)(=O)=O)cc2CN2CCN(CCO)CC2)cc1C [Compound 95, 3-((4-(2-hydroxyethyl)piperazin-1-yl)methyl)-4-(3-methyl-4-(methylthio)phenoxy)benzenesulfonamide]	> 50 µM	6.5 µM	–	17 µM	–
CSc1ccc(N2CN(C)Cc3cc(Br)ccc32)cc1C [Compound 78, 6-bromo-3-methyl-1-(3-methyl-4-(methylthio)phenyl)-1,2,3,4-tetrahydroquinazoline]	24.9 µM	13.7 µM	–	15.5 µM	–
CNCc1cc(S(N)(=O)=O)ccc1Oc1ccc(SC)cc1 [Compound 43, 3-((methylamino)methyl)-4-(4-(methylthio)phenoxy)benzenesulfonamide]	> 50 µM	32.7 µM	73.7%	–	–
CN[C@H]1CC[C@@H](c2ccc(Cl)c(Cl)c2)c2ccc(S(=O)(=O)NCCO)cc21 [Sertraline Sulfonamide Ethanol, (5S,8S)-5-(3,4-dichlorophenyl)-N-(2-hydroxyethyl)-8-(methylamino)-5,6,7,8-tetrahydronaphthalene-2-sulfonamide]	13.8 µM	8.13 µM	80%	–	CC50 ([1]; CC50 (uM)): 13.8 µM; Emax [2, 5]: 80%; IC50 ([2]; Huh-7, 72 h): 8.13 µM
CCCCNS(=O)(=O)c1ccc(Oc2ccc(SC)c(C)c2)c(CN(C)C)c1 [Compound 12, N-butyl-3-((dimethylamino)methyl)-4-(3-methyl-4-(methylthio)phenoxy)benzenesulfonamide]	18.4 µM	13.4 µM	–	–	–
